Here are results for 25 compounds from ChEMBL document CHEMBL4414652, “Identification of Methionine Aminopeptidase-2 (MetAP-2) Inhibitor M8891: A Clinical Compound for the Treatment of Cancer” (J Med Chem, 2019).

Molecules are shown by their SMILES. Converted amounts (≈) assume the structure as drawn. Bounds are passed on as bounds.

The IC50 is the concentration needed to halve the response being measured. Broadly, the T/C is the result in the treated group divided by that in the control group, in per cent. For orientation: AUC means the area under the concentration-time curve, a measure of exposure. The half-life is how long it takes for the measured level to halve. Broadly, the solubility is the concentration that dissolves in the medium under given conditions. The term fraction unbound denotes free concentration divided by total concentration.

The target in data set [1] is Methionine aminopeptidase 1 (Homo sapiens, UniProt P53582).
Description: Inhibition of N-terminal MetAP1 (unknown origin)
A short description of data set [2]: in vivo. The following applies: mouse, faeces, iv.
Description: Drug recovery in iv dosed mouse feces
A short description of data set [3]: Drug recovery in dog at 0.2 mg/kg, iv measured up to 72 hrs. The conditions noted are these: in vivo. Type of data set: ADME, organism-based, Canis lupus familiaris.
Data set [4] in a line: Drug recovery in monkey at 0.2 mg/kg, iv measured up to 72 hrs. The conditions noted are these: rhesus monkey, in vivo. Type of data set: ADME, organism-based, Macaca mulatta.
For data set [5] the following is noted: mouse, in vivo, iv, 1 mg/kg.
The nature of data set [6]: in vivo. The conditions noted are these: mouse, iv.
Description: Half life in iv dosed mouse
Another data set can be described thus: physchem. The conditions noted are these: PBS buffer.
Data set [7] is described as follows: in vitro. The following applies: mouse, plasma.
Description: Protein binding in mouse plasma assessed as unbound fraction
A short description of data set [8]: in vitro. The conditions noted are these: human, plasma.
Description: Protein binding in human plasma assessed as unbound fraction

Description for CAKI-1: Antitumour activity against human Caki1 cells xenografted in nude CD-1 mouse assessed as tumor growth at 25 mg/kg, po BID for 36 days relative to control
Description for U-87 MG: Antitumour activity against human U87MG cells xenografted in nude CD-1 mouse assessed as tumor growth at 20 mg/kg, po administered daily for 14 days relative to control
Description for physchem: Solubility of compound in PBS buffer

With `O=C1CCc2cc(N3CC[C@](O)(C(=O)NCc4cccc(Cl)c4F)C3=O)ccc2N1`, the IC50 in data set [1] was above 10 µM.

In [1], `CN1C(=O)CCc2cc(N3CC[C@](O)(C(=O)NCc4cc(F)cc(Cl)c4)C3=O)ccc21` displayed an IC50 above 10 µM.

In turn, `CS(=O)(=O)Nc1cccc(N2CC[C@](O)(C(=O)NCc3cc(F)cc(Cl)c3)C2=O)c1` registered an IC50 in data set [1] above 10 µM.

In data set [1], `NCCCNC(=O)c1cc2cc(N3CC[C@](O)(C(=O)NCc4cc(F)cc(Cl)c4)C3=O)ccc2[nH]1` gave an IC50 above 10 µM.

In turn, `O=C1CCc2cc(N3CC[C@](O)(C(=O)NCc4cc(F)cc(Cl)c4F)C3=O)ccc2N1` returned an IC50 in data set [1] above 10 µM.

Turning to `O=C(NCc1cc(F)cc(Cl)c1)[C@@]1(O)CCN(c2ccc3[nH]ncc3c2)C1=O`, in data set [1], the IC50 is above 10 µM. In “in vivo [2]”, this compound displayed a dose excreted below 1%.

In data set [1], `O=C1CCc2cc(N3CC[C@](O)(C(=O)NCc4c(F)cccc4F)C3=O)ccc2N1` returned an IC50 above 10 µM.

For `O=C(NCc1cc(F)cc(Cl)c1)[C@@]1(O)CCN(c2cnc3[nH]ccc3c2)C1=O`, in data set [1], the IC50 is above 10 µM. In the data set on U-87 MG, this compound showed a T/C of 45%. In addition, the dose excreted in the data set “in vivo [2]” was 2.3%.

The compound `O=C1CCc2cc(N3CC[C@](O)(C(=O)NCc4c(F)ccc(F)c4F)C3=O)ccc2N1` yielded an IC50 in [1] above 10 µM.

Take `O=C1CCc2cc(N3CC[C@](O)(C(=O)NCc4cc(F)cc(Cl)c4)C3=O)cc(F)c2N1`: in [1], the IC50 is above 10 µM.

As to `O=C1CCc2cc(N3CC[C@](O)(C(=O)NCc4cccc(F)c4F)C3=O)ccc2N1`, the IC50 in data set [1] is above 10 µM.

`Cc1cc2cc(N3CC[C@](O)(C(=O)NCc4cc(F)cc(Cl)c4)C3=O)ccc2[nH]1` came in with an IC50 in [1] above 10 µM.

Regarding `O=C(NCc1cc(F)cc(F)c1)[C@@]1(O)CCN(c2cnc3[nH]ccc3c2)C1=O`, the IC50 in data set [1] is above 10 µM. The same compound came in with a T/C in the data set with CAKI-1 of 39%. The dose excreted in “in vivo [2]” was below 1%.

In [1], `O=C1CCc2cc(N3CC[C@](O)(C(=O)NCc4cc(F)cc(F)c4)C3=O)ccc2N1` gave an IC50 above 10 µM.

For the compound `O=C(NCc1cc(F)cc(F)c1)[C@@]1(O)CCN(c2cnc3[nH]cc(Cl)c3c2)C1=O`, in [1], the IC50 was above 10 µM. The dose excreted in the data set “in vivo [2]” turned out to be 2.7%.

Consider `O=C1CCc2cc(N3CC[C@](O)(C(=O)NCc4cc(F)cc(F)c4F)C3=O)ccc2N1`, for which the IC50 in [1] is above 10 µM.

Take `O=C1CCc2cc(N3CC[C@](O)(C(=O)NCc4cc(F)ccc4Cl)C3=O)ccc2N1`: the IC50 in data set [1] is above 10 µM.

As to `O=C1CCc2cc(N3CC[C@](O)(C(=O)NCc4ccc(F)c(Cl)c4F)C3=O)ccc2N1`, the IC50 in data set [1] is above 10 µM.

Consider `O=C1CCc2cc(N3CC[C@](O)(C(=O)NCc4cc(F)cc(Cl)c4)C3=O)ccc2N1`, for which the Drug recovery entry in [3] and in data set [4] was “Active” in each case. The IC50 in data set [1] was above 10 µM. This compound also gave an AUC in data set [5] of 19 ng·h/mL. This compound had a T/C with U-87 MG of 45%. Moreover, the dose excreted in the data set “in vivo [2]” is 23%. In the data set “in vivo [6]”, this compound gave a half-life of 3 h. Also, the solubility in “physchem” worked out at 90 µg/mL (≈ 208 µM). Also, the fraction unbound worked out at 0.017 in “in vitro [7]” and 0.023 in the data set “in vitro [8]”.

The compound `O=C1CCc2cc(N3CC[C@](O)(C(=O)NCc4cc(F)c(F)c(F)c4)C3=O)ccc2N1` gave an IC50 in data set [1] above 10 µM.

On to `O=C(NCc1cc(F)cc(Cl)c1)[C@@]1(O)CCN(c2cnc3[nH]cc(Cl)c3c2)C1=O`, for which the IC50 in data set [1] was above 10 µM. The compound also displayed a dose excreted in “in vivo [2]” of 1.5%.

On to `O=C1CCc2cc(N3CC[C@](O)(C(=O)NCc4c(F)cccc4Cl)C3=O)ccc2N1`, for which, in data set [1], the IC50 was above 10 µM.

Regarding `O=C(NCc1cc(F)cc(F)c1)[C@@]1(O)CCN(c2ccc3[nH]ncc3c2)C1=O`, the IC50 in data set [1] was above 10 µM. The same compound gave a dose excreted in “in vivo [2]” below 1%.

Regarding `O=C(NCc1cc(F)cc(Cl)c1)[C@@]1(O)CCN(c2ccc3[nH]ccc3c2)C1=O`, the IC50 in data set [1] was above 10 µM. The same compound yielded a dose excreted in the data set “in vivo [2]” below 1%.

With `CCNC(=O)c1cc2cc(N3CC[C@](O)(C(=O)NCc4cc(F)cc(Cl)c4)C3=O)ccc2[nH]1`, the IC50 in data set [1] is above 10 µM.
